This note sets out measurements from a melting point compilation (Tetko et al.; mined from patent text by program, amines drawn as free bases though some values may be those of a salt).

The melting point is the temperature of the solid-liquid transition.

The compound `O=Cc1cc(O)c(O)c(C=O)c1CCC(=O)O` registered a melting point of 160 to 162 °C.
The same measure for `CCOC(=O)c1c(Cn2cnnc2)nc2sc(C)c(C)c2c1-c1ccc(Cl)cc1`: 138 to 139 °C; for `COC(=O)C1(C)COC(c2nc(-c3ccc(F)cc3)c(-c3ccnc(S(C)(=O)=O)n3)[nH]2)OC1` (configuration not stated): 186 to 187 °C.
With `CC(SC1COC(c2cccc(C(=O)Nc3ccc(Cl)cc3)c2)OC1)C(O)(Cn1cncn1)c1ccc(F)cc1F` (configuration not stated) the figure was 90 °C; with `O=C(O)C1=Cc2cc(Br)ccc2OC1C(F)(F)F` (configuration not stated), 190 to 191 °C; with `C=C1C(=O)c2ccccc2OC1(c1ccccc1)c1ccccc1`, 165 to 167 °C.
`CC(=O)C1CCC2C3CCC4CC(O)CCC4(C)C3C(OC(=O)CCl)CC12C` (configuration not stated) displayed a melting point of 83 to 86 °C.
The same measure for `CC(C)(C)OC(=O)n1cnc2c(I)cc(F)cc21`: 73 to 74 °C.
Turning to `CNC(=O)c1cc(C(=O)O)cc(C(=O)NC)n1`, the melting point is below 300 °C.
With `CC(C)(c1cc(Cl)cc([N+](=O)[O-])c1O)c1cc(Cl)cc([N+](=O)[O-])c1O` the figure was 188 °C.
The same measure for `CCCCCN(C[C@H]1CCC[C@H](CN(CCCCC)C(=O)Nc2ccc(N(C)C)cc2)C1)C(=O)Nc1ccc(N(C)C)cc1` (relative stereo): 124 to 127 °C; for `CC1Cc2cc3c(cc2C(c2ccc([N+](=O)[O-])cc2)=NN1C(=O)CCCC(=O)O)OCO3` (configuration not stated): 148 to 150 °C.
With `Cc1nc(C2CCCCC2)c2nc(-c3ccccc3)cc-2[nH]1` the figure was above 280 °C.
Take `CC1=C(C(=O)OC(C)(C)C)C(c2ccccc2Cl)C(C(=O)OC(C)(C)C)=C(C)N1`: the melting point fell in the range of 194 to 196 °C.
With `CCC(NS(=O)(=O)c1ccc(Cl)cc1)P(=O)(Oc1ccccc1)Oc1ccccc1` (configuration not stated) the figure was 136 to 138 °C.
The same measure for `COc1ccc2c(c1)c(O)c(C(=O)Nc1ccccc1)c(=O)n2C`: 199 to 200 °C.
With `O=C1NC(=O)c2c1c(-c1cccc(Cl)c1Cl)cc1[nH]c3ccc(O)cc3c21` the figure was 233 to 235 °C.
In turn, `CC(C)(C)OC(=O)N1CCC(Oc2ccc(Cc3cc4cc(C#N)ccc4o3)cc2)CC1` gave a melting point of 144 to 146 °C.
With `CCOC(=O)c1ccc([N+](=O)[O-])cc1C` the figure was 71 to 72 °C.
The same measure for `COc1cc2c3cc(OC)c(OC)cc3n(C(=O)c3ccccc3)c2cc1OC`: 181 to 182 °C; for `CC(=O)Nc1cccc2c1C(=O)c1c-2n[nH]c1-c1cccs1`: 269 °C; for `CC(C)n1nc(-c2cnc3[nH]cc(C(=O)N[C@H](C)C(=O)N4CC(C#N)C4)c3n2)c2ccc(Cl)cc21`: 204 to 208 °C.
The same measure for `CCCCc1nc(C(O)C(C)(C)C)c(C#N)n1Cc1ccc(-c2ccccc2-c2nnnn2C(c2ccccc2)(c2ccccc2)c2ccccc2)cc1` (configuration not stated): 134 to 135 °C; for `Cn1ncc(-c2ccc3c(c2)c(C2CCN(CCN4CCNC4=O)CC2)cn3-c2ccc(F)cc2)n1`: 203 to 204 °C.
As to `CC(C)COC1C=CC(=O)N1S(=O)(=O)c1ccccc1` (configuration not stated), the melting point is 82 to 83 °C.
With `CCOC(=O)Cc1nn(C(c2ccccn2)c2ncno2)c(=O)c2ccccc12` (configuration not stated) the figure was 118 to 128 °C; with `Cc1ccccc1-n1c(-c2cc(-c3ccc(S(C)(=O)=O)cc3)c(N3CCOCC3)s2)nc2ccccc2c1=O`, 255 to 258 °C.
With `O=C(NC(C(=O)NC(CO)COCc1ccccc1)C(Cc1ccccc1)C(=O)O)OCc1ccccc1` (configuration not stated), the melting point was 100 to 103 °C.
With `O=C(O)c1cccc(-c2cccc3oc(Cc4cccc(C(F)(F)F)c4)cc23)c1`, the melting point lay within 138 to 139 °C.
Turning to `O=C(Cc1ccc(Cl)cc1Cl)c1cccnc1`, the melting point was in the range of 78 to 79 °C.
The same measure for `CCOC(=O)Nc1ccc2c(c1C=O)OCO2`: 123 °C; for `NOCc1cn(C(c2ccccc2)(c2ccccc2)c2ccccc2)cn1`: 138 to 139 °C.
